Measured values taken from ChEMBL document CHEMBL1149041, “Polypropionates from the Mediterranean Mollusk Elysia timida” (J Nat Prod, 1994).

test system: Gambusia affinis; assay: Ichthyotoxicity against Gambusia affinis at 5 ppm; type: organism-based; conditions: in vivo; call rule not given here

SMILES | Activity
CC/C=C(\C)[C@H]1C(C)=CC(C)=C[C@]1(C)c1oc(OC)c(C)c(=O)c1C | Active
CC/C=C(\C)[C@H]1C(C)=C[C@@]2(C)[C@@H]1[C@]2(C)c1oc(OC)c(C)c(=O)c1C [PHOTODEOXYTRIDACHIONE] | Active
C/C=C(\C)[C@H]1C(C)=C[C@@]2(C)[C@@H]1[C@]2(C)c1oc(OC)c(C)c(=O)c1C | Active
